± gives the expanded uncertainty stated by the source.
Assay: xn = mol fraction of the nth substance listed
Settings: 100 kPa, Liquid; for speed of sound: Frequency=3 MHz, Sing-around technique in a fixed-path interferometer; for mass density: Vibrating tube method

COCCO [2-methoxyethan-1-ol] + CCCC[n+]1ccn(C)c1.O=S(=O)([N-]S(=O)(=O)C(F)(F)F)C(F)(F)F
speed of sound (298.15 K, x2 = 0): 1341.8 ± 1.5 m/s | speed of sound (298.15 K, x2 = 0.0966): 1301.4 ± 1.5 m/s | speed of sound (298.15 K, x2 = 0.1943): 1279.7 ± 1.5 m/s | speed of sound (298.15 K, x2 = 0.2887): 1266 ± 1.5 m/s | speed of sound (298.15 K, x2 = 0.3979): 1253.5 ± 1.5 m/s | speed of sound (298.15 K, x2 = 0.4792): 1246.7 ± 1.5 m/s | speed of sound (298.15 K, x2 = 0.5943): 1239.9 ± 1.5 m/s | speed of sound (298.15 K, x2 = 0.6753): 1236.6 ± 1.5 m/s | speed of sound (298.15 K, x2 = 0.8101): 1232.5 ± 1.5 m/s | speed of sound (298.15 K, x2 = 0.8849): 1230.2 ± 1.5 m/s | mass density (298.15 K, x2 = 0): 960.31 ± 1 kg/m3 | mass density (298.15 K, x2 = 0.0966): 1098.07 ± 1.1 kg/m3 | mass density (298.15 K, x2 = 0.1943): 1188.97 ± 1.1 kg/m3 | mass density (298.15 K, x2 = 0.2887): 1250.58 ± 1.1 kg/m3 | mass density (298.15 K, x2 = 0.3979): 1302.72 ± 1.1 kg/m3 | mass density (298.15 K, x2 = 0.4792): 1332.79 ± 1.1 kg/m3 | mass density (298.15 K, x2 = 0.5943): 1365.91 ± 1.1 kg/m3 | mass density (298.15 K, x2 = 0.6753): 1384.52 ± 1.1 kg/m3 | mass density (298.15 K, x2 = 0.8101): 1409.81 ± 1.1 kg/m3 | mass density (298.15 K, x2 = 0.8849): 1421.49 ± 1.1 kg/m3 | speed of sound (303.15 K, x2 = 0): 1324.1 ± 1.5 m/s | speed of sound (303.15 K, x2 = 0.0966): 1285.2 ± 1.5 m/s | speed of sound (303.15 K, x2 = 0.1943): 1264.7 ± 1.5 m/s | speed of sound (303.15 K, x2 = 0.2887): 1251.7 ± 1.5 m/s | speed of sound (303.15 K, x2 = 0.3979): 1240.4 ± 1.5 m/s | speed of sound (303.15 K, x2 = 0.4792): 1234.1 ± 1.5 m/s | speed of sound (303.15 K, x2 = 0.5943): 1227.6 ± 1.5 m/s | speed of sound (303.15 K, x2 = 0.6753): 1224.9 ± 1.5 m/s | speed of sound (303.15 K, x2 = 0.8101): 1221.2 ± 1.5 m/s | speed of sound (303.15 K, x2 = 0.8849): 1219 ± 1.5 m/s | mass density (303.15 K, x2 = 0): 955.71 ± 1 kg/m3 | mass density (303.15 K, x2 = 0.0966): 1093.42 ± 1.1 kg/m3 | mass density (303.15 K, x2 = 0.1943): 1184.24 ± 1.1 kg/m3 | mass density (303.15 K, x2 = 0.2887): 1245.82 ± 1.1 kg/m3 | mass density (303.15 K, x2 = 0.3979): 1298.03 ± 1.1 kg/m3 | mass density (303.15 K, x2 = 0.4792): 1328.12 ± 1.1 kg/m3 | mass density (303.15 K, x2 = 0.5943): 1361.32 ± 1.1 kg/m3 | mass density (303.15 K, x2 = 0.6753): 1379.92 ± 1.1 kg/m3 | mass density (303.15 K, x2 = 0.8101): 1405.23 ± 1.1 kg/m3 | mass density (303.15 K, x2 = 0.8849): 1416.91 ± 1.1 kg/m3 | speed of sound (308.15 K, x2 = 0): 1307.3 ± 1.5 m/s | speed of sound (308.15 K, x2 = 0.0966): 1269.8 ± 1.5 m/s | speed of sound (308.15 K, x2 = 0.1943): 1250.1 ± 1.5 m/s | speed of sound (308.15 K, x2 = 0.2887): 1237.7 ± 1.5 m/s | speed of sound (308.15 K, x2 = 0.3979): 1227.8 ± 1.5 m/s | speed of sound (308.15 K, x2 = 0.4792): 1221.7 ± 1.5 m/s | speed of sound (308.15 K, x2 = 0.5943): 1216.1 ± 1.5 m/s | speed of sound (308.15 K, x2 = 0.6753): 1213.3 ± 1.5 m/s | speed of sound (308.15 K, x2 = 0.8101): 1209.9 ± 1.5 m/s | speed of sound (308.15 K, x2 = 0.8849): 1208.2 ± 1.5 m/s | mass density (308.15 K, x2 = 0): 951.08 ± 1 kg/m3 | mass density (308.15 K, x2 = 0.0966): 1088.78 ± 1.1 kg/m3 | mass density (308.15 K, x2 = 0.1943): 1179.32 ± 1.1 kg/m3 | mass density (308.15 K, x2 = 0.2887): 1240.86 ± 1.1 kg/m3 | mass density (308.15 K, x2 = 0.3979): 1292.99 ± 1.1 kg/m3 | mass density (308.15 K, x2 = 0.4792): 1323.11 ± 1.1 kg/m3 | mass density (308.15 K, x2 = 0.5943): 1356.31 ± 1.1 kg/m3 | mass density (308.15 K, x2 = 0.6753): 1374.96 ± 1.1 kg/m3 | mass density (308.15 K, x2 = 0.8101): 1400.24 ± 1.1 kg/m3 | mass density (308.15 K, x2 = 0.8849): 1411.97 ± 1.1 kg/m3 | speed of sound (313.15 K, x2 = 0): 1292 ± 1.5 m/s | speed of sound (313.15 K, x2 = 0.0966): 1255.3 ± 1.5 m/s | speed of sound (313.15 K, x2 = 0.1943): 1236.4 ± 1.5 m/s | speed of sound (313.15 K, x2 = 0.2887): 1224.7 ± 1.5 m/s | speed of sound (313.15 K, x2 = 0.3979): 1215.7 ± 1.5 m/s | speed of sound (313.15 K, x2 = 0.4792): 1209.7 ± 1.5 m/s | speed of sound (313.15 K, x2 = 0.5943): 1204.9 ± 1.5 m/s | speed of sound (313.15 K, x2 = 0.6753): 1202 ± 1.5 m/s | speed of sound (313.15 K, x2 = 0.8101): 1198.9 ± 1.5 m/s | speed of sound (313.15 K, x2 = 0.8849): 1197.3 ± 1.5 m/s | mass density (313.15 K, x2 = 0): 946.41 ± 1 kg/m3 | mass density (313.15 K, x2 = 0.0966): 1084.06 ± 1.1 kg/m3 | mass density (313.15 K, x2 = 0.1943): 1174.55 ± 1.1 kg/m3 | mass density (313.15 K, x2 = 0.2887): 1236.14 ± 1.1 kg/m3 | mass density (313.15 K, x2 = 0.3979): 1288.26 ± 1.1 kg/m3 | mass density (313.15 K, x2 = 0.4792): 1318.36 ± 1.1 kg/m3 | mass density (313.15 K, x2 = 0.5943): 1351.69 ± 1.1 kg/m3 | mass density (313.15 K, x2 = 0.6753): 1370.39 ± 1.1 kg/m3 | mass density (313.15 K, x2 = 0.8101): 1395.76 ± 1.1 kg/m3 | mass density (313.15 K, x2 = 0.8849): 1407.44 ± 1.1 kg/m3 | speed of sound (318.15 K, x2 = 0): 1274.2 ± 1.5 m/s | speed of sound (318.15 K, x2 = 0.0966): 1238.8 ± 1.5 m/s | speed of sound (318.15 K, x2 = 0.1943): 1221.3 ± 1.5 m/s | speed of sound (318.15 K, x2 = 0.2887): 1210.4 ± 1.5 m/s | speed of sound (318.15 K, x2 = 0.3979): 1202.3 ± 1.5 m/s | speed of sound (318.15 K, x2 = 0.4792): 1197.1 ± 1.5 m/s | speed of sound (318.15 K, x2 = 0.5943): 1192.7 ± 1.5 m/s | speed of sound (318.15 K, x2 = 0.6753): 1190.3 ± 1.5 m/s | speed of sound (318.15 K, x2 = 0.8101): 1187.7 ± 1.5 m/s | speed of sound (318.15 K, x2 = 0.8849): 1186.3 ± 1.5 m/s | mass density (318.15 K, x2 = 0): 941.72 ± 1 kg/m3 | mass density (318.15 K, x2 = 0.0966): 1079.38 ± 1.1 kg/m3 | mass density (318.15 K, x2 = 0.1943): 1169.76 ± 1.1 kg/m3 | mass density (318.15 K, x2 = 0.2887): 1231.28 ± 1.1 kg/m3 | mass density (318.15 K, x2 = 0.3979): 1283.31 ± 1.1 kg/m3 | mass density (318.15 K, x2 = 0.4792): 1313.34 ± 1.1 kg/m3 | mass density (318.15 K, x2 = 0.5943): 1346.72 ± 1.1 kg/m3 | mass density (318.15 K, x2 = 0.6753): 1365.42 ± 1.1 kg/m3 | mass density (318.15 K, x2 = 0.8101): 1390.82 ± 1.1 kg/m3 | mass density (318.15 K, x2 = 0.8849): 1402.59 ± 1.1 kg/m3 | speed of sound (323.15 K, x2 = 0): 1259.4 ± 1.5 m/s | speed of sound (323.15 K, x2 = 0.0966): 1224.6 ± 1.5 m/s | speed of sound (323.15 K, x2 = 0.1943): 1207.8 ± 1.5 m/s | speed of sound (323.15 K, x2 = 0.2887): 1197.6 ± 1.5 m/s | speed of sound (323.15 K, x2 = 0.3979): 1190.1 ± 1.5 m/s | speed of sound (323.15 K, x2 = 0.4792): 1185 ± 1.5 m/s | speed of sound (323.15 K, x2 = 0.5943): 1181.1 ± 1.5 m/s | speed of sound (323.15 K, x2 = 0.6753): 1179.1 ± 1.5 m/s | speed of sound (323.15 K, x2 = 0.8101): 1176.9 ± 1.5 m/s | speed of sound (323.15 K, x2 = 0.8849): 1175.9 ± 1.5 m/s | mass density (323.15 K, x2 = 0): 936.99 ± 1 kg/m3 | mass density (323.15 K, x2 = 0.0966): 1074.61 ± 1.1 kg/m3 | mass density (323.15 K, x2 = 0.1943): 1165.02 ± 1.1 kg/m3 | mass density (323.15 K, x2 = 0.2887): 1226.67 ± 1.1 kg/m3 | mass density (323.15 K, x2 = 0.3979): 1278.8 ± 1.1 kg/m3 | mass density (323.15 K, x2 = 0.4792): 1308.85 ± 1.1 kg/m3 | mass density (323.15 K, x2 = 0.5943): 1342.24 ± 1.1 kg/m3 | mass density (323.15 K, x2 = 0.6753): 1361.02 ± 1.1 kg/m3 | mass density (323.15 K, x2 = 0.8101): 1386.53 ± 1.1 kg/m3 | mass density (323.15 K, x2 = 0.8849): 1398.24 ± 1.1 kg/m3
